This is an account of results in patent US11684067B2, “Generation of peroxyformic acid through polyhydric alcohol formate” (priority 2014, dated 2023).

For data set [1], the system named is Aspergillus brasiliensis ATCC 16403. Briefly: Anti-fungal suspension test of Ester PFA, dirty conditions. Type of data set: cell-based. From the text:
Aspergillus brasilensis ATCC 16403 was used to evaluate the efficacy in treatment with performic acid compositions according to the conditions shown in Table 18.

In data set [2] the test system is pseudomonas. In words: Suspension test in cooling tower water samples. Type of data set: cell-based. Particulars: 5 ppm Ester PFA / 6.13 ppm POAA, 10 minutes. Here is the method:
The antimicrobial efficacy of peroxyformic acid generated through the perhydrolysis of glycerol formatted were tested against pseudomonas in cooling tower samples at both 25° C. and 37° C., along with the peroxyacetic acid (POAA) controls, and the results are summarized in Table 6 and 7 below.

In data set [3] the test system is Aspergillus brasiliensis ATCC 16404. In words: Fungicidal activity of ester PFA, dirty conditions (Example 20). Particulars: 35°C, 5 minutes. Type of data set: cell-based. From the text:
Various Bacillus and Aspergillus pathogens were used to evaluate the micro efficacy of ester PFA generated according to methods of the present invention.

Data set [4] concerns Nalidixic acid resistant E. coli O157:H7. In words: Reduction of E. coli on raw beef brisket, dip treatment. The data set is classed as cell-based. Particulars: 10 minutes dip, ambient, 220 ppm POAA / 180 ppm PFA / 50 ppm LAS per formula (Table 15). Here is the method:
Nalidixic acid resistant E. coli O157:H7 was used to evaluate the efficacy in treatment with performic acid composition on raw beef brisket according to the conditions shown in Table 14.
The generation of PFA from the perhydrolysis of glycerol formates, PFA formulations, POAA formations and controls were evaluated as shown in Table 15.

Data set [5] in a line: Perhydrolysis of esters in H2O2 solution, peracid by iodometric titration. Conditions: 50 ppm ester; for peracid generation under the tested conditions: 150 ppm H2O2, pH 8.5; for Peracid: 150 ppm H2O2, pH 8.5, ambient. Type of data set: physicochemical. Here is the method: [drawing 8] were added to 150 ppm H2O2 solution of pH 8.5 (DI water adjusted by adding 3.0 g of NaHCO3 per liter of water and then adjusted pH with Na2CO3) respectively under ambient conditions. The concentration of peroxycarboxylic acids were measured by an iodometric titration method.
Fifty (50) ppm various formic acid esters were added to 150 ppm H2O2 solution of pH 8.5 (DI water adjusted by adding 3.0 g of NaHCO3 per liter of water and then adjusted pH with Na2CO3) respectively under ambient conditions. The concentration of peroxycarboxylic acids were measured by an iodometric titration method. […]

[6] abbreviates: Peninsula Cooling Water pH 8.81, 25°C.
Where [7] appears, read: Peninsula Cooling Water pH 8.81, 37°C.

Structures can show the parent of a compound that is named as a salt.

In the case of `O=COO` [Ester PFA, peroxyformic acid], the “Log10 Growth” value was 3.27 Log10 in data set [1] (320 ppm PFA, 20°C, 5 minutes); 2.22 Log10 in data set [1] (320 ppm PFA, 20°C, 10 minutes); 2.19 Log10 in data set [1] (320 ppm PFA, 30 C., 5 minutes); less than 2.15 Log10 in data set [1] (320 ppm PFA, 30 C., 10 minutes); less than 2.15 Log10 in data set [1] (400 ppm PFA, 20°C, 5 minutes); less than 2.15 Log10 in data set [1] (400 ppm PFA, 20°C, 10 minutes). In addition, the “Log10 Growth” value in data set [1] (400 ppm PFA, 30 C., 5 minutes) is reported as 1.48 Log10; in data set [1] (400 ppm PFA, 30 C., 10 minutes) it was less than 2.15 Log10; in data set [3] (Table 23: 300 ppm PFA), 3.87 Log10; in data set [3] (Table 23: 350 ppm PFA), 2.23 Log10. Also, the “Log10 Reduction” value in data set [1] (320 ppm PFA, 20°C, 5 minutes) was 2.57 Log10; in data set [1] (320 ppm PFA, 20°C, 10 minutes) it was 3.61 Log10; in data set [1] (320 ppm PFA, 30 C., 5 minutes), 3.64 Log10; in data set [1] (320 ppm PFA, 30 C., 10 minutes), greater than 3.68 Log10; in data set [1] (400 ppm PFA, 20°C, 5 minutes) it was greater than 3.68 Log10; in data set [1] (400 ppm PFA, 20°C, 10 minutes), greater than 3.68 Log10. The “Log10 Reduction” value in data set [1] (400 ppm PFA, 30 C., 5 minutes) is 4.36 Log10; in data set [1] (400 ppm PFA, 30 C., 10 minutes), greater than 3.68 Log10; in data set [2] (BP Cooling Water pH 8.74, 25°C) it was 2.93 Log10; in data set [2] (BP Cooling Water pH 8.74, 37°C), 2.42 Log10; in data set [2] (setting [6]) it was 2.42 Log10; in data set [2] (setting [7]), 2.40 Log10. Besides, the “Log10 Reduction” value is 2.26 Log10 in data set [3] (Table 23: 300 ppm PFA) and 3.91 Log10 in data set [3] (Table 23: 350 ppm PFA). The “Avg. Log10 Growth” value in data set [2] (BP Cooling Water pH 8.74, 25°C) stood at 2.74 Log10; in data set [2] (BP Cooling Water pH 8.74, 37°C), 2.68 Log10; in data set [2] (setting [6]) it was 2.76 Log10; in data set [2] (setting [7]) it was 2.70 Log10. The “Average Log CFU/cm2” value in data set [4] turned out to be 2.74 Log CFU/cm2. Moreover, the “Log reduction” value in data set [4] came to 1.30 Log.

With `CCOC=O` [Ethyl formate], the “peracid generation under the tested conditions” value in data set [5] is “no detectable peracid”. The Peracid in data set [5] (1 min), in data set [5] (5 min), in data set [5] (10 min), in data set [5] (15 min), in data set [5] (25 min) and in data set [5] (35 min) was 0.00 ppm each time.

On to `CC(=O)OCC(COC(C)=O)OC(C)=O` [Triacetin], for which, in data set [5], the “peracid generation under the tested conditions” value was “no detectable peracid”. The Peracid in data set [5] (1 min), in data set [5] (5 min), in data set [5] (10 min), in data set [5] (15 min), in data set [5] (25 min) and in data set [5] (35 min) was 0.00 ppm each time.
